US12679877B2, “NPRA agonists, compositions, and uses thereof” (PharmaIn Corporation, priority 2017, dated 2026)
Non-standard residues stand in square brackets, D forms with d. No end group written: not given here. *: point of attachment. Stearoyl = CCCCCCCCCCCCCCCCCC(=O)*; Lauroyl = CCCCCCCCCCCC(=O)*

System: natriuretic peptide receptors (NPRA or NPRB)
Test: 2-point blood cGMP evaluation (2 and 6 hours) after 15 mg/Kg s.c., cGMP Direct Biotrak EIA
Assay type: in vivo, CD-1 mice
Conditions: for In vivo blood cGMP minus baseline, 2 hour (potency) / In vivo blood cGMP minus baseline, 6 hour (receptor depletion): 15 mg/Kg s.c. in mice (n=3), minus baseline 30 pmol/ml (n=12); for In vivo blood cGMP minus baseline, 2 hour (potency): 2 hours after dosing; for In vivo blood cGMP minus baseline, 6 hour (receptor depletion): 6 hours after dosing; for activity / potency compared to ANP, in words (2 hour data in Table 2) / apparent receptor depletion/internalization, in words (6 hour data in Table 2): 15 mg/Kg s.c. in mice, blood cGMP
Protocol: Various derivatives of ANP were made and screened for increase in vivo potency while limiting the apparent receptor depletion effects (or perhaps can act on another cGMP enhancing receptors) by looking at the level of blood cGMP at specific time points. […] Various derivatives were made and tested in vivo to determine the level of blood cGMP at 2 hours and 6 hours after subcutaneous administration of 15 mg/Kg in mice (which was allometrically equivalent to human dose of 1.5 mg/Kg) with the goal of finding derivatives that were therapeutically useful for increasing blood cGMP.
For 2-point cGMP evaluation of various derivatives, test samples were dissolved in water (Lonza, Wakersville, MD) before being lyophilized. Prior to use, the lyophilized test sample was dissolved in saline then 15 mg/Kg was injected subcutaneously into female CD-1 mice 6-8 weeks (n=3). Blood samples were collected at 2 and 6 hours with K2EDTA blood collection tube. The collection tube was then centrifuged at 13,000 rpm for 10 minutes at 4° C. to separate plasma. The plasma was analyzed using the cGMP Direct Biotrak EIA (GE Healthcare Life Sciences, Marlborough, MA). Note that by using allometric scaling at exponent of 0.7 [dose in other species=mice dose/((mouse weight/weight of average other species)^0.7)], the 15 mg/Kg in mice is equivalent to about 7.5 mg/Kg rat dose, about 2.5 mg/Kg dog dose, and 1.5 mg/Kg human dose. For the purpose the present disclosure, the 15 mg/Kg in mice as presented in the relevant data examples, should be understood as equivalent to about 7.5 mg/Kg rat dose, which is equivalent to about 2.5 mg/Kg dog dose, which is equivalent to about 1.5 mg/Kg human dose. Because the mice cGMP response to 15 mg/Kg dose of the newly discovered derivatives (see Table 2) was quite high, it would be prudent to use daily doses that are lower than 15 mg/Kg for mice, 7.5 mg/Kg for rat, 2.5 mg/Kg for dog, and 1.5 mg/Kg for human since any higher dose may result in too much increase in cGMP that can result in too much or even dangerous drop in blood pressure unless formulated in a very slow release delivery system. In fact based on cGMP response it was more preferable to use daily doses that are lower than […], 1.5 mg/Kg for rat, 0.5 mg/Kg for dog, and 0.3 mg/Kg for human. Additionally, the level of blood cGMP is preferably between 1.5 to 3-times of the normal baseline level. The blood or plasma cGMP normal baseline level was about 20-50 pmol/ml but could vary slightly depending on the assay kit used to measure the level.

In the case of “CH3(CH2)10CO-KKGGGSLRRSSCFGGRMDRIGAQSGLGCNSFRY (Lauroyl-KKGGGSLRRSSCFGGRMDRIGAQSGLGCNSFRY; not fully specified (bridges); printed as CH3(CH2)10CO-KKGGGSLRRSSCFGGRMDRIGAQSGLGCNSFRY; cysteine pairing not given here; listed as Homo Sapiens) [SEQ ID NO. 9]”, the “In vivo blood cGMP minus baseline, 2 hour (potency)” value is reported as 163.62 nM, the “In vivo blood cGMP minus baseline, 6 hour (receptor depletion)” value is reported as 4.78 pmol/mL and the “activity / potency compared to ANP, in words (2 hour data in Table 2)” value (from here on “activity / potency compared to ANP”) is reported as “increased potency”.

“CH3(CH2)10CO-KKKGGGSLRRSSCFGGRMDRIGAQSGLGCNSFRY (Lauroyl-KKKGGGSLRRSSCFGGRMDRIGAQSGLGCNSFRY; not fully specified (bridges); printed as CH3(CH2)10CO-KKKGGGSLRRSSCFGGRMDRIGAQSGLGCNSFRY; cysteine pairing not given here; listed as Homo Sapiens) [SEQ ID NO. 11]” was tested, and the “In vivo blood cGMP minus baseline, 2 hour (potency)” value was 136.16 nM, the “In vivo blood cGMP minus baseline, 6 hour (receptor depletion)” value was 10.28 pmol/mL and the “activity / potency compared to ANP” value was “increased potency”.

For “CH3(CH2)10CO-KKKKGGGSLRRSSCFGGRMDRIGAQSGLGCNSFRY (Lauroyl-KKKKGGGSLRRSSCFGGRMDRIGAQSGLGCNSFRY; not fully specified (bridges); printed as CH3(CH2)10CO-KKKKGGGSLRRSSCFGGRMDRIGAQSGLGCNSFRY; cysteine pairing not given here; listed as Homo Sapiens) [SEQ ID NO. 15]”, the “In vivo blood cGMP minus baseline, 2 hour (potency)” value was 60.52 nM, the “In vivo blood cGMP minus baseline, 6 hour (receptor depletion)” value was 3.36 pmol/mL and the “activity / potency compared to ANP” value was “increased potency”. For the same substance, the “apparent receptor depletion/internalization, in words (6 hour data in Table 2)” value was “prevented apparent receptor depletion/internalization”.

In the case of “CH3(CH2)16CO-KKGGGSLRRSSCFGGRMDRIGAQSGLGCNSFRY (Stearoyl-KKGGGSLRRSSCFGGRMDRIGAQSGLGCNSFRY; not fully specified (bridges); printed as CH3(CH2)16CO-KKGGGSLRRSSCFGGRMDRIGAQSGLGCNSFRY; cysteine pairing not given here; listed as Homo Sapiens) [SEQ ID NO. 10]”, the “In vivo blood cGMP minus baseline, 2 hour (potency)” value is reported as 183.12 nM, the “In vivo blood cGMP minus baseline, 6 hour (receptor depletion)” value is reported as 14.78 pmol/mL and the “activity / potency compared to ANP” value is reported as “increased potency”.

For “CH3(CH2)16CO-KKKGGGSLRRSSCFGGRMDRIGAQSGLGCNSFRY (Stearoyl-KKKGGGSLRRSSCFGGRMDRIGAQSGLGCNSFRY; not fully specified (bridges); printed as CH3(CH2)16CO-KKKGGGSLRRSSCFGGRMDRIGAQSGLGCNSFRY; cysteine pairing not given here; listed as Homo Sapiens) [SEQ ID NO. 14]”, the “In vivo blood cGMP minus baseline, 2 hour (potency)” value was 574.25 nM, the “In vivo blood cGMP minus baseline, 6 hour (receptor depletion)” value was 255.75 pmol/mL and the “activity / potency compared to ANP” value was “increased potency”.

“CH3(CH2)16CO-KKKKGGGSLRRSSCFGGRMDRIGAQSGLGCNSFRY (Stearoyl-KKKKGGGSLRRSSCFGGRMDRIGAQSGLGCNSFRY; not fully specified (bridges); printed as CH3(CH2)16CO-KKKKGGGSLRRSSCFGGRMDRIGAQSGLGCNSFRY; cysteine pairing not given here; listed as Homo Sapiens) [SEQ ID NO. 18]” was tested, and the “In vivo blood cGMP minus baseline, 2 hour (potency)” value was 355.17 nM, the “In vivo blood cGMP minus baseline, 6 hour (receptor depletion)” value was 231.65 pmol/mL and the “activity / potency compared to ANP” value was “increased potency”. For the same substance, the “apparent receptor depletion/internalization, in words (6 hour data in Table 2)” value was “prevented apparent receptor depletion/internalization”.

“CH3(CH2)16CO-KKKKSLRRSSCFGGRMDRIGAQSGLGCNSFRY (Stearoyl-KKKKSLRRSSCFGGRMDRIGAQSGLGCNSFRY; not fully specified (bridges); cysteine pairing not given here; listed as Homo Sapiens) [SEQ ID NO. 35]” was tested, and the “In vivo blood cGMP minus baseline, 2 hour (potency)” value was 45.00 nM, the “In vivo blood cGMP minus baseline, 6 hour (receptor depletion)” value was 12.79 pmol/mL and the “activity / potency compared to ANP” value was “slightly increased in activity”. For the same substance, the “apparent receptor depletion/internalization, in words (6 hour data in Table 2)” value was “no significant effect on apparent receptor internalization”.

In the case of “CH3(CH2)16CO-KKKKSLRRSSCFGGRMDRIGAQSGLGCNSFrY (Stearoyl-KKKKSLRRSSCFGGRMDRIGAQSGLGCNSF[dR]Y; not fully specified (bridges); printed as KKKKSLRRSSCFGGRMDRIGAQSGLGCNSFrY; cysteine pairing not given here; listed as Homo Sapiens) [SEQ ID NO. 36]”, the “In vivo blood cGMP minus baseline, 2 hour (potency)” value is reported as “inactive” and the “In vivo blood cGMP minus baseline, 6 hour (receptor depletion)” value is reported as “inactive”.

For “CH3(CH2)16CO-RRR-SGRGGGCFGGRMDRIGAQSGLGCNSFRY (Stearoyl-RRRSGRGGGCFGGRMDRIGAQSGLGCNSFRY; not fully specified (bridges); printed as CH3(CH2)16CO-RRR-SGRGGGCFGGRMDRIGAQSGLG; cysteine pairing not given here; listed as Homo Sapiens) [SEQ ID NO. 37]”, the “In vivo blood cGMP minus baseline, 2 hour (potency)” value was 45.61 nM, the “In vivo blood cGMP minus baseline, 6 hour (receptor depletion)” value was 10.16 pmol/mL and the “activity / potency compared to ANP” value was “limited increase in activity”.

For “CH3(CH2)16CO-RRR-SGRGSGCFGGRMDRIGAQSGLGCNSFRY (Stearoyl-RRRSGRGSGCFGGRMDRIGAQSGLGCNSFRY; not fully specified (bridges); printed as CH3(CH2)16CO-RRR-SGRGSGCFGGRMDRIGAQSGLG; cysteine pairing not given here; listed as Homo Sapiens) [SEQ ID NO. 38]”, the “In vivo blood cGMP minus baseline, 2 hour (potency)” value was 33.56 nM, the “In vivo blood cGMP minus baseline, 6 hour (receptor depletion)” value was 7.97 pmol/mL and the “activity / potency compared to ANP” value was “limited increase in activity”.

In the case of “CH3(CH2)16CO-RRR-SLPRSSCFGGRMDRIGAQSGLGCNSFRY-NH2 (Stearoyl-RRRSLPRSSCFGGRMDRIGAQSGLGCNSFRY-NH2; not fully specified (bridges); printed as CH3(CH2)16CO-RRR-SLPRSSCFGGRMDRIGAQSGLG; cysteine pairing not given here; listed as Homo Sapiens) [SEQ ID NO. 39]”, the “In vivo blood cGMP minus baseline, 2 hour (potency)” value is reported as “inactive”, the “In vivo blood cGMP minus baseline, 6 hour (receptor depletion)” value is reported as “inactive” and the “activity / potency compared to ANP” value is reported as “loss or diminished of activity”.

“CH3(CH2)16CO-RRR-SLPRSSCFGGRMDRIGAQSGLGCNSFrY-NH2 (Stearoyl-RRRSLPRSSCFGGRMDRIGAQSGLGCNSF[dR]Y-NH2; not fully specified (bridges); printed as CH3(CH2)16CO-RRR-SLPRSSCFGGRMDRIGAQSGLG; cysteine pairing not given here; listed as Homo Sapiens) [SEQ ID NO. 40]” was tested, and the “In vivo blood cGMP minus baseline, 2 hour (potency)” value was “inactive”, the “In vivo blood cGMP minus baseline, 6 hour (receptor depletion)” value was “inactive” and the “activity / potency compared to ANP” value was “loss or diminished of activity”.

In the case of “CH3(CH2)16COKKGGGGLSKGCFGLKLDRIGSMSGLGC (Stearoyl-KKGGGGLSKGCFGLKLDRIGSMSGLGC; not fully specified (bridges); printed as CH3(CH2)16COKKGGGGLSKGCFGLKLDRIGSMSGLGC; cysteine pairing not given here; listed as Homo Sapiens) [SEQ ID NO. 86]”, the “In vivo blood cGMP minus baseline, 2 hour (potency)” value is reported as 80.2 nM and the “In vivo blood cGMP minus baseline, 6 hour (receptor depletion)” value is reported as 42.37 pmol/mL.

“CH3(CH2)16COKKKGGGGLSKGCFGLKLDRIGSMSGLGC (Stearoyl-KKKGGGGLSKGCFGLKLDRIGSMSGLGC; not fully specified (bridges); printed as CH3(CH2)16COKKKGGGGLSKGCFGLKLDRIGSMSGLGC; cysteine pairing not given here; listed as Homo Sapiens) [SEQ ID NO. 68]” was tested, and the “In vivo blood cGMP minus baseline, 2 hour (potency)” value was 330.29 nM and the “In vivo blood cGMP minus baseline, 6 hour (receptor depletion)” value was 250.33 pmol/mL.

For “CH3(CH2)16COKKKKGGGGLSKGCFGLKLDRIGSMSGLGC (Stearoyl-KKKKGGGGLSKGCFGLKLDRIGSMSGLGC; not fully specified (bridges); printed as CH3(CH2)16COKKKKGGGGLSKGCFGLKLDRIGSMSG; cysteine pairing not given here; listed as Homo Sapiens) [SEQ ID NO. 72]”, the “In vivo blood cGMP minus baseline, 2 hour (potency)” value was 544.99 nM, the “In vivo blood cGMP minus baseline, 6 hour (receptor depletion)” value was 368.29 pmol/mL and the “activity / potency compared to ANP” value was “increased potency”.
